What was measured:
MDA-MB-231 = test: MTT antiproliferative assay, MDA-MB-231; type: cell-based, human; details: MDA-MB-231, 72 h incubation, mean ± SD of three independent experiments
HCT116 = test: MTT antiproliferative assay, HCT116; type: cell-based, human; details: HCT116, 72 h incubation, mean ± SD of three independent experiments
Jurkat = test: MTT antiproliferative assay, Jurkat; type: cell-based, human; details: 72 h incubation, mean ± SD of three independent experiments
Hela = test: MTT antiproliferative assay, HeLa; type: cell-based, human; details: 72 h incubation, mean ± SD of three independent experiments
Procedure: Table 2 IC50 (μM) ± SD of tested compounds in different cell lines after 72 h incubation. | column: Cell Line, IC50 (µM) ± SD / Hela

MCF-7 = test: MTT antiproliferative assay, MCF-7; type: cell-based, human; details: MCF-7, 72 h incubation, mean ± SD of three independent experiments
MCF-10A = test: MTT cytotoxicity assay, non-cancer MCF-10A; type: cell-based, human; details: 72 h incubation, mean ± SD of three independent experiments
Bj-5ta = test: MTT cytotoxicity assay, non-cancer Bj-5ta; type: cell-based, human; details: 72 h incubation, mean ± SD of three independent experiments
[1] = DPPH radical scavenging activity; details: sample 1 mM, 30 min, gallic acid equivalents, mean (±SD), triplicate
[2] = ABTS radical scavenging activity; details: sample 1 mM, 30 min, gallic acid equivalents, mean (±SD), triplicate
Excerpt: (§1) Table 3 Antioxidant activity.

[3] = Ferric reducing antioxidant power (FRAP); details: sample 1 mM, 30 min, gallic acid equivalents, mean (±SD), triplicate
Excerpt: as §1

Cn1cc(/C=C/C(=O)c2ccc(C(F)(F)F)cc2)c2ccccc21 [12b, (2E)-3-(1-methyl-1H-indol-3-yl)-1-(4-trifluoromethylphenyl) prop-2-en-1-one]
IC50 (MDA-MB-231; Homo sapiens): > 100 µM | IC50 (HCT116; Homo sapiens, HCT-116, 72 h): 12.3 ± 0.2 µM | IC50 (Jurkat; Homo sapiens): > 100 µM | IC50 (Hela; Homo sapiens, HeLa, 72 h): 32.8 ± 0.4 µM | IC50 (MCF-7; Homo sapiens, MCF7, 72 h): 20.5 ± 5.1 µM | IC50 (MCF-10A; Homo sapiens, MCF-10A, 72 h): > 100 µM | IC50 (Bj-5ta; Homo sapiens): > 100 µM | melting point: 182 to 184 °C

COn1cc(/C=C/C(=O)c2ccc(C(F)(F)F)cc2)c2ccccc21 [12c, (2E)-3-(1-methoxy-1H-indol-3-yl)-1-(4-trifluoromethylphenyl) prop-2-en-1-one]
IC50 (MDA-MB-231; Homo sapiens): 81.3 ± 1.2 µM | IC50 (HCT116; Homo sapiens, HCT-116, 72 h): 55.3 ± 1.7 µM | IC50 (Jurkat; Homo sapiens): 39.3 ± 1.2 µM | IC50 (Hela; Homo sapiens, HeLa, 72 h): 98 ± 2.8 µM | IC50 (MCF-7; Homo sapiens, MCF7, 72 h): 86 ± 3.5 µM | IC50 (MCF-10A; Homo sapiens, MCF-10A, 72 h): 38.4 ± 3.1 µM | IC50 (Bj-5ta; Homo sapiens): > 100 µM | melting point: 113 to 115 °C

O=C(/C=C/c1c[nH]c2ccccc12)c1ccccc1O [13a, (2E)-1-(2-hydroxyphenyl)-3-(1H-indol-3-yl)prop-2-en-1-one]
IC50 (MDA-MB-231; Homo sapiens): 92.7 ± 1.8 µM | IC50 (HCT116; Homo sapiens, HCT-116, 72 h): 40.5 ± 3.1 µM | IC50 (Jurkat; Homo sapiens): 25.9 ± 2.4 µM | IC50 (Hela; Homo sapiens, HeLa, 72 h): 39.6 ± 3.5 µM | IC50 (MCF-7; Homo sapiens, MCF7, 72 h): 44.7 ± 2.6 µM | IC50 (MCF-10A; Homo sapiens, MCF-10A, 72 h): 55.4 ± 3.6 µM | IC50 (Bj-5ta; Homo sapiens): 81.5 ± 0.2 µM | DPPH [1]: 14.2 (±0.4) µmol GAE/mmol | ABTS [2]: 292.4 (±12.4) µmol GAE/mmol | FRAP [3]: 125.2 (±9.4) µmol GAE/mmol | melting point: 179.5 to 181 °C

Cn1cc(/C=C/C(=O)c2ccccc2O)c2ccccc21 [13b, (2E)-1-(2-hydroxyphenyl)-3-(1-methyl-1H-indol-3-yl)prop-2-en-1-one]
IC50 (MDA-MB-231; Homo sapiens): 82 ± 3.2 µM | IC50 (HCT116; Homo sapiens, HCT-116, 72 h): 34.7 ± 0.2 µM | IC50 (Jurkat; Homo sapiens): > 100 µM | IC50 (Hela; Homo sapiens, HeLa, 72 h): 42.8 ± 2.5 µM | IC50 (MCF-7; Homo sapiens, MCF7, 72 h): 29.7 ± 2.3 µM | IC50 (MCF-10A; Homo sapiens, MCF-10A, 72 h): > 100 µM | IC50 (Bj-5ta; Homo sapiens): > 100 µM | DPPH [1]: 7.6 (±3.8) µmol GAE/mmol | ABTS [2]: 116.8 (±5.8) µmol GAE/mmol | FRAP [3]: 41.2 (±0.7) µmol GAE/mmol | melting point: 205 to 207 °C

COn1cc(/C=C/C(=O)c2ccccc2O)c2ccccc21 [13c, (2E)-1-(2-hydroxyphenyl)-3-(1-methoxy-1H-indol-3-yl)prop-2-en-1-one]
IC50 (MDA-MB-231; Homo sapiens): > 100 µM | IC50 (HCT116; Homo sapiens, HCT-116, 72 h): 54 ± 2.2 µM | IC50 (Jurkat; Homo sapiens): 42 ± 1.8 µM | IC50 (Hela; Homo sapiens, HeLa, 72 h): 73.9 ± 3.4 µM | IC50 (MCF-7; Homo sapiens, MCF7, 72 h): 53.4 ± 2.5 µM | IC50 (MCF-10A; Homo sapiens, MCF-10A, 72 h): > 100 µM | IC50 (Bj-5ta; Homo sapiens): > 100 µM | DPPH [1]: 30.3 (±15.4) µmol GAE/mmol | ABTS [2]: 214.6 (±28.4) µmol GAE/mmol | FRAP [3]: 43.4 (±1.8) µmol GAE/mmol | melting point: 139 to 140 °C

O=C(/C=C/c1c[nH]c2ccccc12)c1ccc(O)cc1 [14a, (2E)-1-(4-hydroxyphenyl)-3-(1H-indol-3-yl)prop-2-en-1-one]
IC50 (MDA-MB-231; Homo sapiens): 66 ± 2.5 µM | IC50 (HCT116; Homo sapiens, HCT-116, 72 h): 36.8 ± 0.5 µM | IC50 (Jurkat; Homo sapiens): 33.9 ± 2.5 µM | IC50 (Hela; Homo sapiens, HeLa, 72 h): 39.9 ± 2.6 µM | IC50 (MCF-7; Homo sapiens, MCF7, 72 h): 42.2 ± 0.7 µM | IC50 (MCF-10A; Homo sapiens, MCF-10A, 72 h): 51.5 ± 1.7 µM | IC50 (Bj-5ta; Homo sapiens): 61 ± 0.6 µM | DPPH [1]: 12.3 (±2.3) µmol GAE/mmol | ABTS [2]: 194.8 (±21.4) µmol GAE/mmol | FRAP [3]: 105.5 (±3.4) µmol GAE/mmol | melting point: 218 °C

Cn1cc(/C=C/C(=O)c2ccc(O)cc2)c2ccccc21 [14b, (2E)-1-(4-hydroxyphenyl)-3-(1-methyl-1H-indol-3-yl)prop-2-en-1-one]
IC50 (MDA-MB-231; Homo sapiens): > 100 µM | IC50 (HCT116; Homo sapiens, HCT-116, 72 h): 49.3 ± 1.3 µM | IC50 (Jurkat; Homo sapiens): > 100 µM | IC50 (Hela; Homo sapiens, HeLa, 72 h): 93 ± 2.6 µM | IC50 (MCF-7; Homo sapiens, MCF7, 72 h): 82.3 ± 1.8 µM | IC50 (MCF-10A; Homo sapiens, MCF-10A, 72 h): 54 ± 2.1 µM | IC50 (Bj-5ta; Homo sapiens): > 100 µM | DPPH [1]: 7.3 (±3.1) µmol GAE/mmol | ABTS [2]: 84.6 (±2.7) µmol GAE/mmol | FRAP [3]: 114.3 (±4.2) µmol GAE/mmol | melting point: 244 °C

COn1cc(/C=C/C(=O)c2ccc(O)cc2)c2ccccc21 [14c, (2E)-1-(4-hydroxyphenyl)-3-(1-methoxy-1H-indol-3-yl)prop-2-en-1-one]
IC50 (MDA-MB-231; Homo sapiens): 82.2 ± 3.1 µM | IC50 (HCT116; Homo sapiens, HCT-116, 72 h): 34.5 ± 0.7 µM | IC50 (Jurkat; Homo sapiens): 7.3 ± 0.1 µM | IC50 (Hela; Homo sapiens, HeLa, 72 h): 34.6 ± 0.3 µM | IC50 (MCF-7; Homo sapiens, MCF7, 72 h): 52.7 ± 2.6 µM | IC50 (MCF-10A; Homo sapiens, MCF-10A, 72 h): 59 ± 0.2 µM | IC50 (Bj-5ta; Homo sapiens): 76.4 ± 1.7 µM | DPPH [1]: 21.1 (±5.8) µmol GAE/mmol | ABTS [2]: 75.9 (±5.3) µmol GAE/mmol | FRAP [3]: 42.0 (±2.0) µmol GAE/mmol | melting point: 182 to 184 °C

O=C(/C=C/c1ccc(O)cc1)c1c[nH]c2ccccc12 [17a, (2E)-3-(4-hydroxyphenyl)-1-(1H-indol-3-yl)prop-2-en-1-one]
IC50 (MDA-MB-231; Homo sapiens): 39.6 ± 2.1 µM | IC50 (Hela; Homo sapiens, HeLa, 72 h): 31.4 ± 2 µM | IC50 (MCF-7; Homo sapiens, MCF7, 72 h): 47.9 ± 0.2 µM | IC50 (MCF-10A; Homo sapiens, MCF-10A, 72 h): 28.6 ± 0.5 µM | DPPH [1]: 16.0 (±1.1) µmol GAE/mmol | ABTS [2]: 227.6 (±5.4) µmol GAE/mmol | FRAP [3]: 161.6 (±5.7) µmol GAE/mmol | melting point: 197 to 200 °C

COn1cc(C(=O)/C=C/c2ccc(O)cc2)c2ccccc21 [17c, (2E)-3-(4-hydroxyphenyl)-1-(1-methoxy-1H-indol-3-yl)prop-2-en-1-one]
IC50 (MDA-MB-231; Homo sapiens): > 100 µM | IC50 (Hela; Homo sapiens, HeLa, 72 h): 39.8 ± 1.6 µM | IC50 (MCF-7; Homo sapiens, MCF7, 72 h): > 100 µM | IC50 (MCF-10A; Homo sapiens, MCF-10A, 72 h): > 100 µM | DPPH [1]: 13.6 (±0.9) µmol GAE/mmol | ABTS [2]: 209.0 (±6.6) µmol GAE/mmol | FRAP [3]: 134.1 (±6.7) µmol GAE/mmol | melting point: 213 to 215 °C

O=C(/C=C/c1ccc(O)c(O)c1)c1c[nH]c2ccccc12 [18a, (2E)-3-(3,4-dihydroxyphenyl)-1-(1H-indol-3-yl)prop-2-en-1-one]
IC50 (MDA-MB-231; Homo sapiens): 39.3 ± 1.9 µM | IC50 (HCT116; Homo sapiens, HCT-116, 72 h): 29.8 ± 0.7 µM | IC50 (MCF-7; Homo sapiens, MCF7, 72 h): 42.3 ± 3.3 µM | IC50 (MCF-10A; Homo sapiens, MCF-10A, 72 h): 11.5 ± 1.4 µM | DPPH [1]: 520.1 (±6.9) µmol GAE/mmol | ABTS [2]: 401.2 (±39.2) µmol GAE/mmol | FRAP [3]: 480.9 (±28.8) µmol GAE/mmol | melting point: 212 to 215 °C

COn1cc(C(=O)/C=C/c2ccc(O)c(O)c2)c2ccccc21 [18c, (2E)-3-(3,4-dihydroxyphenyl)-1-(1-methoxy-1H-indol-3-yl)prop-2-en-1-one]
IC50 (MDA-MB-231; Homo sapiens): > 100 µM | IC50 (HCT116): 18.2 ± 2.9 µM | IC50 (HCT116; Homo sapiens, HCT-116, 72 h): 18.5 µM | IC50 (Jurkat; Homo sapiens): 8 ± 1.4 µM | IC50 (Hela; Homo sapiens, HeLa, 72 h): > 100 µM | IC50 (MCF-7; Homo sapiens, MCF7, 72 h): > 100 µM | IC50 (µM) ± SD, MCF-10A (MCF-10A): no toxicity | IC50 (MCF-10A; Homo sapiens, MCF-10A, 72 h): > 100 µM | IC50 (µM) ± SD, Bj-5ta (Bj-5ta): no toxicity | IC50 (Bj-5ta; Homo sapiens): > 100 µM | DPPH [1]: 551.1 (±14.9) µmol GAE/mmol | ABTS [2]: 298.1 (±21.0) µmol GAE/mmol | FRAP [3]: 432.0 (±21.4) µmol GAE/mmol | melting point: 206 to 209 °C

COc1cc(/C=C/C(=O)c2c[nH]c3ccccc23)ccc1O [19a, (2E)-3-(4-hydroxy-3-methoxyphenyl)-1-(1H-indol-3-yl)prop-2-en-1-one]
IC50 (MDA-MB-231; Homo sapiens): 45.3 ± 0.5 µM | IC50 (HCT116): 35.3 ± 0.6 µM | IC50 (HCT116; Homo sapiens, HCT-116, 72 h): 62.7 ± 2.9 µM | IC50 (Jurkat; Homo sapiens): 34 ± 0.3 µM | IC50 (Hela): 41.4 ± 2.5 µM | IC50 (Hela; Homo sapiens, HeLa, 72 h): 25.5 ± 1.6 µM | IC50 (MCF-7; Homo sapiens, MCF7, 72 h): 43.1 ± 1.6 µM | IC50 (MCF-10A): 40.2 ± 1.2 µM | IC50 (MCF-10A; Homo sapiens, MCF-10A, 72 h): 24.7 ± 2.8 µM | IC50 (Bj-5ta; Homo sapiens): 66.6 ± 0.1 µM | DPPH [1]: 223.5 (±11.2) µmol GAE/mmol | ABTS [2]: 564.7 (±74.5) µmol GAE/mmol | FRAP [3]: 307.2 (±11.9) µmol GAE/mmol | melting point: 200 to 203 °C

N.N.[Cl][Pt][Cl] [Cisplatin, reference compound]
IC50 (MDA-MB-231): 17.4 ± 0.2 µM | IC50 (HCT116): 15.3 ± 1.6 µM | IC50 (Jurkat): 6.3 ± 0.4 µM | IC50 (Hela): 6.5 ± 0.5 µM | IC50 (MCF-7): 24.6 ± 2.1 µM | IC50 (MCF-10A): 25.9 ± 2.1 µM | IC50 (Bj-5ta): 37.9 ± 1.9 µM
